Active and inactive are the calls of the source. The rule behind the calls is not given here.
Columns and labels:
Hep 3B2 [1] = experiment: Induction of cell death in human Hep3B cells assessed as increase in number of dead cells at 10 to 20 uM measured after 24 hrs; assay type: functional, cell-based; details: dose 10-20 µM
Hep 3B2 [2] = experiment: Decrease in cell expansion in human Hep3B cells at 10 to 20 uM measured after 48 to 72 hrs by Neubauer chamber method; assay type: functional, cell-based; details: dose 10-20 µM, time 48-72 hrs
Hep 3B2 [3] = experiment: Cell cycle arrest in human Hep3B cells assessed as accumulation at sub-G1 phase at 10 uM measured after 24 hrs by propidium iodide and RNase A staining based Nicoletti assay (reference value: 2.5 %); assay type: functional
Hep 3B2 [4] = experiment: Cell cycle arrest in human Hep3B cells assessed as accumulation at sub-G1 phase at 20 uM measured after 24 hrs by propidium iodide and RNase A staining based Nicoletti assay (reference value: 2.5 %); assay type: functional
Huh-7 = experiment: Decrease in cell expansion in human Huh-7 cells at 10 to 20 uM measured after 24 hrs by Neubauer chamber method; assay type: functional, cell-based; details: dose 10-20 µM
HepG2 [5] = experiment: Induction of cell death in human HepG2 cells assessed as increase in number of dead cells at 10 to 20 uM measured after 72 hrs; assay type: functional, cell-based; details: dose 10-20 µM
HepG2 [6] = experiment: Decrease in cell expansion in human HepG2 cells at 10 to 20 uM measured after 48 to 72 hrs by Neubauer chamber method; assay type: functional, cell-based; details: dose 10-20 µM, time 48-72 hrs
[7] = target: T1, Far upstream element-binding protein 1 (Homo sapiens, UniProt Q96AE4); experiment: Inhibition of 6xHis-tagged human FUBP1 expressed in HEK293T cells assessed as reduction in FUBP1 interaction with biotinylated NLC chip immobilized FUSE p21 oligonucleotide incubated for 21 hrs by SPR analysis
T1 sequence (Q96AE4 whole entry): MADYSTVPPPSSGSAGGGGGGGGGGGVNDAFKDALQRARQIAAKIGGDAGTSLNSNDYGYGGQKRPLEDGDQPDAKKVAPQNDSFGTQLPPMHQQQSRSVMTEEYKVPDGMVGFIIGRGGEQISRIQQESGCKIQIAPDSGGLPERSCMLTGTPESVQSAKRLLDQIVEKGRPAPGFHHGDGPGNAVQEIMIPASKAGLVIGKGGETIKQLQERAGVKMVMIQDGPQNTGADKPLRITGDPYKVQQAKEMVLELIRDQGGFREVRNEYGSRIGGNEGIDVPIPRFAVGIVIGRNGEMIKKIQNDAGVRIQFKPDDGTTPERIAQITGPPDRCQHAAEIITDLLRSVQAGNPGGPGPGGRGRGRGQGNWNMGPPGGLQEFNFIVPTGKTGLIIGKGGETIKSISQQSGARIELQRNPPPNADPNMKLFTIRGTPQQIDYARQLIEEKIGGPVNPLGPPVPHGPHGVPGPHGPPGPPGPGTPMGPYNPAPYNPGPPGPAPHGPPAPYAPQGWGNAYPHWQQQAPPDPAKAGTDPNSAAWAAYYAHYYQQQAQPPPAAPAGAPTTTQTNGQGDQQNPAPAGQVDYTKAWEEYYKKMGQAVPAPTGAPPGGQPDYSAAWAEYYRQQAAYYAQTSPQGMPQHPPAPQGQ

Row | SMILES | IC50 ([7]; hek293t) | other results
1 | COc1ccc(-c2cc(C(F)(F)F)n3nc(-c4cccs4)cc3n2)cc1OC |  | Activity (Hep 3B2 [1]): Active; Activity (Hep 3B2 [2]): Active; Activity (Hep 3B2 [3]): 7.7%; Activity (Hep 3B2 [4]): 16.1%; Activity (Huh-7): Active; Activity (HepG2 [5]): inactive; Activity (HepG2 [6]): Active
2 | FC(F)(F)c1cc(-c2ccc3c(c2)OCO3)nc2cc(-c3ccco3)nn12 | Not Active | 
3 | FC(F)(F)c1cc(-c2cccnc2)nc2cc(-c3cccs3)nn12 |  | IC50 ([7]; read-out: IC50): > 100 µM
4 | FC(F)(F)c1cc(-c2ccco2)nc2cc(-c3ccco3)nn12 | Not Active | 
5 | FC(F)(F)c1cc(-c2ccc3ccccc3c2)nc2cc(-c3ccco3)nn12 | Not Active | 
6 | FC(F)(F)c1cc(-c2ccncc2)nc2cc(-c3cccs3)nn12 |  | IC50 ([7]; read-out: IC50): > 100 µM
7 | FC(F)(F)c1cc(-c2ccc(Cl)cc2)nc2cc(-c3ccco3)nn12 | Not Active | 
8 | FC(F)(F)c1cc(-c2ccncc2)nc2cc(-c3ccco3)nn12 | Not Active | 
9 | O=[N+]([O-])c1cccc(-c2cc(C(F)(F)F)n3nc(-c4ccco4)cc3n2)c1 | Not Active | 
10 | COc1ccc(-c2cc(C(F)(F)F)n3nc(C(C)(C)C)cc3n2)cc1OC | Not Active | 
11 | Cc1cc(C(F)(F)F)n2nc(-c3cccs3)cc2n1 | Not Active | 
12 | FC(F)(F)c1cc(-c2cccs2)nc2cc(-c3cccs3)nn12 |  | IC50 ([7]; read-out: IC50): > 100 µM
13 | Fc1ccc(-c2cc(C(F)(F)F)n3nc(-c4cccs4)cc3n2)cc1 | Not Active | 
14 | FC(F)(F)c1cc(-c2nccs2)nc2cc(-c3cccs3)nn12 | Not Active | 
15 | FC(F)(F)c1cc(-c2ccc3c(c2)CCC3)nc2cc(-c3ccco3)nn12 | Not Active | 
16 | FC(F)(F)c1cc(-c2ccc(Cl)cc2)nc2cc(C3CC3)nn12 | Not Active | 
17 | COc1ccc(-c2cc(C(F)(F)F)n3nc(-c4ccccc4)cc3n2)cc1OC | Not Active | 
18 | FC(F)(F)c1cc(-c2ccccc2)nc2cc(-c3cccs3)nn12 |  | IC50 ([7]; read-out: IC50): > 100 µM
19 | COc1ccc(-c2cc(C(F)(F)F)n3nc(-c4cccs4)cc3n2)cc1 |  | IC50 ([7]; read-out: IC50): > 100 µM
20 | FC(F)(F)c1cc(-c2ccccn2)nc2cc(C3CC3)nn12 | Not Active | 
21 | FC(F)(F)c1cc(-c2cccc(Cl)c2)nc2cc(-c3cccs3)nn12 | Not Active | 
22 | FC(F)(F)c1cc(-c2cccs2)nc2cc(-c3ccco3)nn12 | Not Active | 
23 | COc1ccc(-c2cc(C(F)(F)F)n3nc(C4CC4)cc3n2)cc1OC |  | IC50 ([7]; read-out: IC50): 102 µM
24 | FC(F)(F)c1cc(-c2ccc(Cl)cc2)nc2cc(-c3cccs3)nn12 |  | IC50 ([7]; read-out: IC50): > 100 µM
25 | COc1ccc(-c2cc(C(F)(F)F)n3nc(-c4ccc(Cl)cc4)cc3n2)cc1OC | Not Active | 
26 | Cc1cc2nc(-c3ccncc3)cc(C(F)(F)F)n2n1 | Not Active | 
27 | COc1ccc(-c2cc(C(F)(F)F)n3nc(-c4ccco4)cc3n2)cc1 | Not Active | 

Source: ChEMBL document CHEMBL4715785, “Pyrazolo[1,5a]pyrimidines as a new class of FUSE binding protein 1 (FUBP1) inhibitors” (Bioorg Med Chem, 2016)
